Measurements taken from US20250339409A1, “USES OF PAN BET INHIBITORS” (VYNE THERAPEUTICS INC., priority 2021, published 2025).
Values joined by “and” are separate entries in the source; they are usually repeats but may differ in a detail not shown here. Equal entries are not always repeated. Where two headings read alike, the source gives them in different places.

How the values were obtained:
[1] = test system: CXCL10, IL17α, IL22, IL36γ, CCL20, SerpinB4 gene expression in Th17 stimulated human skin; experiment: Th17 stimulated human skin explants, RT-qPCR of biomarkers; type: cell-based; conditions: Homo sapiens, 10 μM, calculated to Th17 stimulated control, three skin donors
Excerpt: (§1) Human skin biopsy tissue was stimulated to induce a Th17 immuno-phenotype using a method derived from Feghali-Bostwick et al. Induction of a Th17 phenotype in human skin—a mimic of dermal inflammatory diseases, Methods and Protocols, 2, 45 (2019). The pharmacodynamic assay described therein involves a similar paradigm to elicit a Th2 response and is used to evaluate the therapeutic potential of the active compounds (e.g., BETi1; and
(§2) Freshly excised healthy human skin tissue from abdominoplasties is defatted, cleaned and sectioned into 7 mm biopsies. The biopsies are placed in Transwell® inserts with the epidermis apical and exposed to air and the dermis submerged in media in the basal chamber. The biopsies are pre-treated overnight at 37° C., 5% CO2 with different compounds and controls added to the media in the basal chamber.
(§3) The next day, contents of the basal chamber is replaced with fresh media containing the test compound (listed below) and a stimulation cocktail for either Th2 inflammation (proprietary of service provider cocktail) or Th17 inflammation (mix of antibodies against CD3, CD28, IL-4, IFNγ and recombinant IL-1β, IL-6, IL-21, TGF-β). The biopsies are incubated at 37° C., 5% CO2 for a further 24 hrs.
(§4) A list of all the treatments is provided below: • 1. Untreated control (for both stimulations) • 2. Th2 stimulated control • 3. Th17 stimulated control • 4. Th2+BETia at 0.01, 0.04, 0.16, 0.63, 2.50, and 10 μM • 5. Th2+BETi1 at 0.01, 0.04, 0.16, 0.63, 2.50, and 10 μM • 6. Th2+Ruxolitinib at 0.01, 0.04, 0.16, 0.63, 2.50, and 10 μM • 7. Th2+betamethasone valerate 210 μM (equivalent to 0.01%) • 8. Th17+BETia at 10 μM • 9. Th17+BETi1 at 10 μM • 10. Th17+Ruxolitinib at 10 μM • 11. Th17+betamethasone valerate 210 μM (equivalent to 0.01%)
(§5) After harvesting, the biopsies are cut in half, and one half is homogenized and used for RNA extraction by standard methods and inflammatory pathways is assessed by RT-qPCR. The ability of BETi1 or BETia to inhibit the activity of up to six biomarkers per stimulation is reported as percent activity calculated to stimulated control and fold change in gene expression calculated to untreated control with respect to Th2 (IL4, IL13, IL31, CCL17, CCL26, CCL2) and Th17 (CXCL10, IL17α, IL22, IL36γ, CCL20, SerpinB4). Statistical analysis is performed on data sets from all 3 donors combined and compares the percent inhibition of each biomarker by each treatment calculated to its respective vehicle.
(§6) qPCR values were calculated using the relative quantification approach outlined by Livak, et al (2001) (Section 9, Reference 2). The Ct values (threshold cycle) defined as the fractional cycle number at which the amount of amplified target reaches a fixed threshold, were normalised to the Ct value of an internal biomarker or ‘housekeeping gene’ (GAPDH). The higher limit of detection was set at a Ct value of 40, and any target having not reached Ct by 40 cycles was set to this value. The delta Ct values (dt(Ct)) refers to the Ct of the gene of interest minus the Ct of the internal biomarker. The ddt(Ct) is the dt(Ct) value of the gene minus the average dt(Ct) value of the untreated samples. The ddt(Ct) is converted to power by the equation; =power(2,dt(Ct)). Fold change was calculated as ratio of the power of the gene of interest divided by the average power of the untreated samples. This normalizes the untreated samplers to a value of 1. For the comparison of multiple skin donors, the stimulated samples were normalized to 100% maximum activity (such to normalize variability between different skin donors). Percent activity was calculated as the percent increase or decrease in stimulation compared to the stimulated samples set at 100% maximum activity. Percent change was calculated as: Inhibition=(100−(avg % activity/stimulated)*100). Statistical analysis was performed using One-way ANOVA with Dunnett's Multiple Comparisons (non parametric). […]

[2] = test system: IL4, IL13, IL31, CCL17, CCL26, CCL2 gene expression in Th2 stimulated human skin; experiment: Th2 stimulated human skin explants, RT-qPCR of biomarkers; type: cell-based; conditions: Homo sapiens, calculated to Th2 stimulated control; for inhibition at 2.5 µM: 2.50 μM
Excerpt: as §1, §2, §3, §4, §5, §6

[3] = test system: E-cadherin; experiment: RHE vitiligo model: E-cadherin secretion by ELISA; type: cell-based, human; conditions: Rux 1.5%, 48 h
Protocol: (§7) […] Three epidermis samples per condition are fixed in 4% formaldehyde solution and embedded in paraffin for further analysis (morphology analysis, melanin and melanocytes localisation/quantification). Three other epidermis samples per condition are put in a specific lysis buffer for total RNA extraction.
(§8) At the end of the treatments, culture media is collected (from 3 epidermis per condition), aliquoted and stored at −20° C. until use in ELISA assays. The quantity of MMP-9 secreted by the epidermis at the end of the treatments is analysed using the human MMP-9 Quantikine ELISA kit (Bio-Techne; DMP900). The secretion of E-cadherin in culture media is measured using to human E-cadherin Quantikine ELISA kit (Bio-Techne; DCADE0) dedicated for the measurement of natural human E-cadherin in culture supernates, serum, plasma, urine, and saliva.
(§9) The ELISAs are performed following the instructions of the supplier. The quantities of MMP-9 and E-cadherin are determined by comparisons with standard curves performed with recombinant human MMP-9 or E-cadherin provided in the kits.
(§10) Quantification of secretion of MMP-9 and E-cadherin by ELISA from collected culture medium was conducted in accordance with Method E. The results, shown in FIG. 5A and FIG. 5B are based on Tables 23 and 24 respectively and presented in percentage of release in comparison to the stimulated control. A statistical analysis (student t-test) was performed to compare the effects of the treatments with the formulations to the vehicle (with $: 0.05>p>0.01; $$: 0.01>p>0.001; and $$$: p<0.001). The same analysis was performed to compare the effects of the vehicle and of the unstimulated control to the stimulated control (with *: 0.05>p>0.01; **: 0.01>p>0.001; and ***: p<0.001). The analysis was performed from three replicates per condition (n=3). The mean of the three values and the standard deviation are presented on the histograms in FIG. 5A and FIG. 5B. As shown in Table 21 and FIG. 5A and consistent with the results of Part A, MMP-9 secretion was increased following the stimulation with the cytokines, which validates the assay.

[4] = test system: MMP-9; experiment: RHE vitiligo model: MMP-9 secretion by ELISA; type: cell-based, human; conditions: Rux 1.5%, 48 h
Protocol: as §7, §8, §9, §10

[5] = test system: anti collagen antibodies induced arthritis (ACAIA); experiment: ACAIA mice: hot plate withdrawal latency; type: in vivo, Balb/c mice
Protocol: On days 0, 5 and 11 animals are placed on hot plate apparatus (53±1° C.) and the time until the first response is observed and recorded.

[6] = TNF-α/IFN-γ stimulated RHE, replicates N1-N3
[7] = culture medium of RHE, TNF-α 12 ng/ml/IFN-γ 12 ng/ml
[8] = culture medium of RHE, TNF-α 12 ng/ml/IFN-γ 12 ng/ml, replicates N1-N3

**Q.** For `CCNC(=O)c1cc2c(-c3ccn(C)c(=O)c3Oc3c(C)cc(F)cc3C)cn(C)c(=O)c2[nH]1` [BETia], which inhibition at 10 µM ([1]; read-out: % inhibition CCL20) is on record?
**A.** 40.1%

**Q.** And the inhibition at 10 µM ([1]; read-out: % inhibition CXCL10)?
**A.** 71.3%

**Q.** And the inhibition at 10 µM ([1]; read-out: % inhibition IL22)?
**A.** 79.7%

**Q.** What about the inhibition at 10 µM ([1]; read-out: % inhibition IL36γ) of the same molecule?
**A.** 78.2%

**Q.** What about the inhibition at 10 µM ([1]; read-out: % inhibition Serpinβ4) of the same molecule?
**A.** 71.2%

**Q.** What about the inhibition at 0.01 µM ([2]; read-out: % Inhibition CCL17) of the same molecule?
**A.** 28.2%

**Q.** What about the inhibition at 0.01 µM ([2]; read-out: % Inhibition CCL26) of the same molecule?
**A.** 8.3%

**Q.** What about the inhibition at 0.01 µM ([2]; read-out: % Inhibition IL31) of the same molecule?
**A.** < 0%

**Q.** What about the inhibition at 0.01 µM ([2]; read-out: % inhibition CCL2) of the same molecule?
**A.** < 0%

**Q.** What about the inhibition at 0.01 µM ([2]; read-out: % inhibition IL4) of the same molecule?
**A.** < 0%

**Q.** And the inhibition at 0.01 µM ([2]; read-out: % inhibition IL13)?
**A.** 22%

**Q.** What about the inhibition at 0.04 µM ([2]; read-out: % Inhibition CCL26) of the same molecule?
**A.** ~38%

**Q.** What about the inhibition at 0.04 µM ([2]; read-out: % Inhibition IL31) of the same molecule?
**A.** < 0%

**Q.** What about the inhibition at 0.04 µM ([2]; read-out: % inhibition CCL2) of the same molecule?
**A.** < 0%

**Q.** What about the inhibition at 0.04 µM ([2]; read-out: % inhibition IL4) of the same molecule?
**A.** < 0%

**Q.** And the inhibition at 0.04 µM ([2]; read-out: % inhibition IL13)?
**A.** 15.8%

**Q.** What about the inhibition at 0.16 µM ([2]; read-out: % Inhibition CCL17) of the same molecule?
**A.** 31.8%

**Q.** And the inhibition at 0.16 µM ([2]; read-out: % Inhibition CCL26)?
**A.** 46.3%

**Q.** What about the inhibition at 0.16 µM ([2]; read-out: % Inhibition IL31) of the same molecule?
**A.** 19.1%

**Q.** And the inhibition at 0.16 µM ([2]; read-out: % inhibition CCL2)?
**A.** < 0%

**Q.** And the inhibition at 0.16 µM ([2]; read-out: % inhibition IL4)?
**A.** 56.8%

**Q.** What about the inhibition at 0.16 µM ([2]; read-out: % inhibition IL13) of the same molecule?
**A.** 27.7%

**Q.** What about the inhibition at 0.63 µM ([2]; read-out: % Inhibition CCL17) of the same molecule?
**A.** 25.4%

**Q.** What about the inhibition at 0.63 µM ([2]; read-out: % Inhibition CCL26) of the same molecule?
**A.** 2.8%

**Q.** And the inhibition at 0.63 µM ([2]; read-out: % inhibition CCL2)?
**A.** < 0%

**Q.** And the inhibition at 0.63 µM ([2]; read-out: % inhibition IL13)?
**A.** 22.3%

**Q.** And the inhibition at 2.5 µM ([2]; read-out: % Inhibition CCL17)?
**A.** 30%

**Q.** What about the inhibition at 2.5 µM ([2]; read-out: % Inhibition CCL26) of the same molecule?
**A.** 8%

**Q.** And the inhibition at 2.5 µM ([2]; read-out: % inhibition CCL2)?
**A.** < 0%

**Q.** What about the inhibition at 2.5 µM ([2]; read-out: % inhibition IL4) of the same molecule?
**A.** 57.5%

**Q.** What about the inhibition at 2.5 µM ([2]; read-out: % inhibition IL13) of the same molecule?
**A.** 24.9%

**Q.** What about the inhibition at 10 µM ([2]; read-out: % Inhibition CCL26) of the same molecule?
**A.** ~8%

**Q.** And the inhibition at 10 µM ([2]; read-out: % inhibition CCL2)?
**A.** 21.5%

**Q.** What about the inhibition at 10 µM ([2]; read-out: % inhibition IL4) of the same molecule?
**A.** ~76%

**Q.** And the inhibition at 10 µM ([2]; read-out: % inhibition IL13)?
**A.** 53.4%

**Q.** How did the “E-Cad (% stimulated ctl) Mean” value ([3]; TNF-α/IFN-γ stimulated RHE) turn out when `N#CC[C@H](C1CCCC1)n1cc(-c2ncnc3[nH]ccc23)cn1` [Rux] was run?
**A.** 160%

**Q.** What about the “E-Cad (% stimulated ctl)” value [3, 6] of the same molecule?
**A.** 77% and 247% and 155%

**Q.** What about the “Mean conc E-Cad” value [3, 7] of the same molecule?
**A.** 3.7 ng/mL

**Q.** What about the “Conc E-Cad” value [3, 8] of the same molecule?
**A.** 1.8 ng/mL and 5.7 ng/mL and 3.6 ng/mL

**Q.** What about the “MMP-9 (% stimulated ctl) Mean” value ([4]; TNF-α/IFN-γ stimulated RHE) of the same molecule?
**A.** 11%

**Q.** What about the “MMP-9 (% stimulated ctl)” value [4, 6] of the same molecule?
**A.** 2% and 28% and 4%

**Q.** And the “Mean conc MMP-9” value [4, 7]?
**A.** 2.0 ng/mL

**Q.** What about the “Conc MMP-9” value [4, 8] of the same molecule?
**A.** 0.4 ng/mL and 4.9 ng/mL and 0.7 ng/mL

**Q.** What does the source list for `C[C@@H]1C[C@H]2[C@@H]3CCC4=CC(=O)C=C[C@]4(C)[C@@]3(F)[C@@H](O)C[C@]2(C)[C@@]1(O)C(=O)CO` [Dex]?
**A.** Hot Plate Change in withdrawal latency (Avg.) ([5]; 1 mg/kg IA, Baseline): 11.71 s; Hot Plate Change in withdrawal latency (Avg.) ([5]; 1 mg/kg IA, Day 5): 10.14 s; Hot Plate Change in withdrawal latency (Avg.) ([5]; 1 mg/kg IA, Day 11): 12.86 s; Hot Plate Change in withdrawal latency (Avg.) ([5]; 1 mg/kg IP, Baseline): 11.86 s; Hot Plate Change in withdrawal latency (Avg.) ([5]; 1 mg/kg IP, Day 5): 12.43 s; Hot Plate Change in withdrawal latency (Avg.) ([5]; 1 mg/kg IP, Day 11): 12.29 s
